Patent US20230192677A1, “CYP11A1 INHIBITORS” (ORION CORPORATION, priority 2020, published 2023)

Molecular target: T1, CYP11A1 (Homo sapiens, UniProt P05108)
T1 construct: human H295R adrenocortical carcinoma cell line was used as source of enzyme; endogenous in cells; host or cells: H295R human adrenocortical carcinoma cells
T1 sequence (P05108 40-521): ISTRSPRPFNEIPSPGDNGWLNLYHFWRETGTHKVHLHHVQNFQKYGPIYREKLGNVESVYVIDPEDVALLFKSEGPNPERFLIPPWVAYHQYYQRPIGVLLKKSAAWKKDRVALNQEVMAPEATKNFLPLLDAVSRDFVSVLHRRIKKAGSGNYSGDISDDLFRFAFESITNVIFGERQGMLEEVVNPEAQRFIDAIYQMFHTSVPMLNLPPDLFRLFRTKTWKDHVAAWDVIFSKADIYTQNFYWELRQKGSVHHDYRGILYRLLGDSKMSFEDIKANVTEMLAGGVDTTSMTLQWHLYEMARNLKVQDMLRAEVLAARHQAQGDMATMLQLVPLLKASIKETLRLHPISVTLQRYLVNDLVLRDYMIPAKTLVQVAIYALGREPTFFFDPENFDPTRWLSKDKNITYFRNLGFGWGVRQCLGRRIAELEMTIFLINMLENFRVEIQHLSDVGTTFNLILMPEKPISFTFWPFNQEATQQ
Assay: CYP11A1 inhibition, isocaproic acid release assay (IARA) in H295R cells
Type: cell-based
Settings: human H295R adrenocortical carcinoma cell line, three days, 3 nM [24,25-3H]-labelled cholesterol; read-out: IC50 on CYP11A1 inhibition (Group)
Procedure: The ability of the test compounds to inhibit conversion of cholesterol to pregnenolone and isocaproic acid was measured by modification of isocaproic acid release assay (IARA) described by Ruangwises et al. (Biology of Reproduction 1991; 45(1):143-50) except that human H295R adrenocortical carcinoma cell line was used as source of enzyme and extraction was done with dextran-coated charcoal suspension (Isomaa, V. et al., Endocrinology 1982; 111(3):833-843). […] To determine the half maximal inhibitory concentration (IC50) of the test compounds on CYP11A1 inhibition, the cells were treated for three days with increasing concentrations of the test compounds in the presence of 3 nM [24,25-3H]-labelled cholesterol (American Radiolabelled Chemicals). The final DMSO concentration was 1%. Cell culture medium was extracted with dextran-coated charcoal suspension and the radiolabelled isocaproic acid was determined by mixing 100 μl of supernatant fraction in 200 μl of scintillation fluid (OptiPhase SuperMix, Perkin Elmer). Radioactivity was measured using a Microbeta scintillation counter (1450 MicroBeta Trilux, Wallac). All the test compounds were studied at 10 concentrations in duplicates.

| SMILES | IC50 [nM] |
| --- | --- |
| CCC(=O)N1CCC(COc2ccc(CN3Cc4ccccc4C3)cc2S(C)(=O)=O)CC1 [Compound 70] | 101 to 200 |
| CS(=O)(=O)N1CCC(COc2coc(CN3Cc4ccc(-c5ccno5)cc4C3)cc2=O)CC1 [Compound 4, 2-((5-(Isoxazol-5-yl)isoindolin-2-yl)methyl)-5-((1-(methylsulfonyl)piperidin-4-yl)methoxy)-4H-pyran-4-one] | 101 to 200 |
| CS(=O)(=O)N1CCC(COc2coc(CN3Cc4ccc(-c5ccon5)cc4C3)cc2=O)CC1 [Compound 5, 2-((5-(Isoxazol-3-yl)isoindolin-2-yl)methyl)-5-((1-(methylsulfonyl)piperidin-4-yl)methoxy)-4H-pyran-4-one] | < 100 |
| CC(C)(C)OC(=O)N1CCC2(CC1)CC(COc1coc(CN3CCc4ccccc4C3)cc1=O)C2 [Compound 35, tert-Butyl 2-(((6-((3,4-dihydroisoquinolin-2(1H)-yl)methyl)-4-oxo-4H-pyran-3-yl)oxy)methyl)-7-azaspiro[3.5]nonane-7-carboxylate] | 201 to 2000 |
| CS(=O)(=O)c1cc(CN2Cc3ccccc3C2)ccc1OCC1CCN(S(C)(=O)=O)CC1 [Compound 65, 2-(3-(Methylsulfonyl)-4-((1-(methylsulfonyl)piperidin-4-yl)methoxy)benzyl)-isoindoline] | < 100 |
| N#Cc1ccc(N2CC3(CC(COc4coc(CN5CCc6ccccc6C5)cc4=O)C3)C2)nc1 [Compound 51, 6-(6-(((6-((3,4-Dihydroisoquinolin-2(1H)-yl)methyl)-4-oxo-4H-pyran-3-yl)oxy)-methyl)-2-azaspiro[3.3]heptan-2-yl)nicotinonitrile] | 201 to 2000 |
| CS(=O)(=O)c1cc(CN2Cc3ccc(-c4cnco4)cc3C2)ccc1OCC1CCN(S(C)(=O)=O)CC1 [Compound 13a, 5-(2-(3-(Methylsulfonyl)-4-((1-(methylsulfonyl)piperidin-4-yl)methoxy)-benzyl)isoindolin-5-yl)oxazole] | 101 to 200 |
| CC(=O)[C@H]1CC[C@H](COc2ccc(CN3Cc4ccccc4C3)cc2S(C)(=O)=O)CC1 [Compound 67, 1-((1r,4r)-4-((4-(Isoindolin-2-ylmethyl)-2-(methylsulfonyl)phenoxy)methyl)-cyclohexyl)ethan-1-one] | < 100 |
| CS(=O)(=O)c1cc(CN2Cc3ccc(-c4ncco4)cc3C2)ccc1OCC1CCN(S(C)(=O)=O)CC1 [Compound 13b, 2-(2-(3-(Methylsulfonyl)-4-((1-(methylsulfonyl)piperidin-4-yl)methoxy)-benzyl)isoindolin-5-yl)oxazole] | < 100 |
| CCS(=O)(=O)c1cc(CN2Cc3ccc(C(F)(F)F)cc3C2)ccc1OCC1CCN(S(C)(=O)=O)CC1 [Compound 27, 2-(3-(Ethylsulfonyl)-4-((1-(methylsulfonyl)piperidin-4-yl)methoxy)benzyl)-5-(trifluoromethyl)isoindoline] | < 100 |
| CS(=O)(=O)c1cc(CN2Cc3ccc(-c4cncs4)cc3C2)ccc1OCC1CCN(S(C)(=O)=O)CC1 [Compound 14, 5-(2-(3-(Methylsulfonyl)-4-((1-(methylsulfonyl)piperidin-4-yl)methoxy)benzyl)-isoindolin-5-yl)thiazole] | < 100 |
| O=c1cc(CN2CCc3ccccc3C2)occ1OCC1CC2(C1)CN(S(=O)(=O)c1ccc(F)cc1)C2 [Compound 58, 2-((3,4-Dihydroisoquinolin-2(1H)-yl)methyl)-5-((2-((4-fluorophenyl)sulfonyl)-2-azaspiro[3.3]heptan-6-yl)methoxy)-4H-pyran-4-one] | 101 to 200 |
| CS(=O)(=O)N1CCC(COc2coc(C(N3Cc4ccccc4C3)C(F)(F)F)cc2=O)CC1 (stereo not drawn) [Compound 20, 5-((1-(Methylsulfonyl)piperidin-4-yl)methoxy)-2-(2,2,2-trifluoro-1-(isoindolin-2-yl)ethyl)-4H-pyran-4-one] | 201 to 2000 |
| CS(=N)(=O)c1ccc(COc2ccc(CN3Cc4ccccc4C3)cc2S(C)(=O)=O)cc1 (stereo not drawn) [Compound 72, Imino(4-((4-(isoindolin-2-ylmethyl)-2-(methylsulfonyl)phenoxy)methyl)phenyl)(methyl)-λ^6-sulfanone] | < 100 |
| CS(=O)(=O)N1CCC(COc2coc(CN3Cc4ccc(-c5ncco5)cc4C3)cc2=O)CC1 [Compound 3, 5-((1-(Methylsulfonyl)piperidin-4-yl)methoxy)-2-((5-(oxazol-2-yl)isoindolin-2-yl)methyl)-4H-pyran-4-one] | < 100 |

Other lines, results leading:

| IC50 [nM] | SMILES |
| --- | --- |
| < 100 | CCS(=O)(=O)c1ccc(COc2ccc(CN3Cc4ccccc4C3)cc2S(C)(=O)=O)cc1 [Compound 76, 2-(4-((4-(Ethylsulfonyl)benzyl)oxy)-3-(methylsulfonyl)benzyl)isoindoline] |
| < 100 | CN(C)C(=O)[C@H]1CC[C@H](COc2ccc(CN3Cc4ccccc4C3)cc2S(C)(=O)=O)CC1 [Compound 79, (1r,4r)-4-((4-(Isoindolin-2-ylmethyl)-2-(methylsulfonyl)phenoxy)methyl)-N,N-dimethylcyclohexane-1-carboxamide] |
| < 100 | CS(=O)(=O)c1ccc(COc2ccc(CN3Cc4ccccc4C3)cc2S(C)(=O)=O)cc1 [Compound 82, 2-(3-(Methylsulfonyl)-4-((4-(methylsulfonyl)benzyl)oxy)benzyl)isoindoline] |
| 101 to 200 | CC(C)(O)c1ccc(COc2coc(CN3Cc4ccccc4C4(CCCC4)C3)cc2=O)cc1 [Compound 104, 2-((1′H-Spiro[cyclopentane-1,4′-isoquinolin]-2′(3′H)-yl)methyl)-5-((4-(2-hydroxypropan-2-yl)benzyl)oxy)-4H-pyran-4-one] |
| 101 to 200 | CO/N=C(\C)c1ccc2c(c1)CN(Cc1cc(=O)c(OCC3CCN(S(C)(=O)=O)CC3)co1)C2 [Compound 91, (E)-2-((5-(1-(Methoxyimino)ethyl)isoindolin-2-yl)methyl)-5-((1-(methylsulfonyl)piperidin-4-yl)methoxy)-4H-pyran-4-one] |
| 101 to 200 | CS(=O)(=O)c1ccc(COc2ccc(CN3Cc4ccccc4C3)cc2S(C)(=O)=O)cc1F [Compound 81, 2-(4-((3-Fluoro-4-(methylsulfonyl)benzyl)oxy)-3-(methylsulfonyl)benzyl)-isoindoline] |
| < 100 | CS(=O)(=O)c1cc(CN2Cc3ccccc3C2)ccc1OCc1ccc(S(=O)(=O)N2CC(O)C2)cc1 [Compound 77, 1-((4-((4-(Isoindolin-2-ylmethyl)-2-(methylsulfonyl)phenoxy)methyl)phenyl)-sulfonyl)azetidin-3-ol] |
| < 100 | CC(O)c1ccc(COc2ccc(CN3Cc4ccccc4C3)cc2S(C)(=O)=O)cc1 (stereo not drawn) [Compound 92b, 1-(4-((4-(Isoindolin-2-ylmethyl)-2-(methylsulfonyl)phenoxy)methyl)phenyl)-ethanol] |
| < 100 | CC[S@@](=N)(=O)c1ccc(COc2ccc(CN3Cc4ccccc4C3)cc2S(C)(=O)=O)cc1 [Compound 98, (R)-Ethyl(imino)(4-((4-(isoindolin-2-ylmethyl)-2-(methylsulfonyl)phenoxy)-methyl)phenyl)-λ^6-sulfanone] |
| < 100 | CS(=O)(=O)c1cc(CN2Cc3cccc(F)c3C2)ccc1OCC1CCN(S(C)(=O)=O)CC1 [Compound 105, 4-Fluoro-2-(3-(methylsulfonyl)-4-((1-(methylsulfonyl)piperidin-4-yl)methoxy)-benzyl)isoindoline] |
| 101 to 200 | CS(=O)(=O)c1cc(CN2Cc3ccccc3C2)ccc1OCc1ccc([S@](C)(=N)=O)cc1 [Compound 95, (R)-Imino(4-((4-(isoindolin-2-ylmethyl)-2-(methylsulfonyl)phenoxy)methyl)-phenyl)(methyl)-λ^6-sulfanone] |
| < 100 | CN(C)C(=O)C1CCC(COc2ccc(CN3Cc4ccccc4C3)cc2S(C)(=O)=O)CC1 (stereo not drawn) [Compound 74, 4-((4-(Isoindolin-2-ylmethyl)-2-(methylsulfonyl)phenoxy)methyl)-N,N-dimethylcyclohexane-1-carboxamide] |
| < 100 | CS(=N)(=O)c1ccc(COc2ccc(CN3Cc4ccc(C(F)(F)F)cc4C3)cc2S(C)(=O)=O)cc1 (stereo not drawn) [Compound 85, Imino(methyl)(4-((2-(methylsulfonyl)-4-((5-(trifluoromethyl)isoindolin-2-yl)methyl)phenoxy)methyl)phenyl)-λ^6-sulfanone] |
| 201 to 2000 | CS(=O)(=O)c1cc(CN2Cc3ccccc3C2)ccc1OCC1CCOCC1 [Compound 83, 2-(3-(Methylsulfonyl)-4-((tetrahydro-2H-pyran-4-yl)methoxy)benzyl)isoindoline] |
| < 100 | CS(=O)(=O)c1cc(CN2Cc3ccccc3C2)ccc1OCC1CCN(S(=O)(=O)C2COC2)CC1 [Compound 75, 2-(3-(Methylsulfonyl)-4-((1-(oxetan-3-ylsulfonyl)piperidin-4-yl)methoxy)-benzyl)isoindoline] |
